Where “and” joins values, the source holds several entries; their conditions need not be identical. Equal values may be shown once. Read-outs that look alike come from different tables or passages of the source.
Experiment: Terminal plasma and brain concentrations in AC-MES studies (UHPLC-MS/MS)
Type: in vivo, mouse
Conditions: for concentration at 0.5 h / Kp at 0.5 h / concentration at 30 min / Kp at 30 min: CF-1, mouse, in vivo
Method: Sample Collection and Preparation: Mice were anesthetized by isoflurane inhalation (according to SOP TECH-018) until they reached a surgical plane of anesthesia. Then a syringe (1 mL syringe with a 22 gauge needle) was inserted under the sternum into the heart (according to SOP TECH-031). Approximately 0.5 mL of blood was collected, deposited into a K2EDTA tube, and stored on ice. Animals were then euthanized by cervical dislocation. Brains were removed, placed into a pre-weighed vial, and snap frozen on dry ice. At the end of the sample collection, blood was centrifuged at 4000 rpm for 10 minutes at 4° C., and the plasma pipetted into a labeled tube. All samples were stored in a −80° C. freezer until the time of bioanalysis.
Plasma Samples: Extraction of plasma samples was carried out by protein precipitation using acetonitrile. Diluted plasma samples (50 μL) were mixed with 50 μL of internal standard (IS) solution in 1:1 acetonitrile:water (v:v) followed by addition of 200 μL of acetonitrile. Samples were vortexed for 30 seconds, centrifuged at 13,000 rpm for 20 minutes, decanted into a 96-well plate and further centrifuged at 4000 rpm for 20 minutes. The samples were analyzed by ultra-high performance liquid chromatography electrospray ionization tandem mass spectrometry (UHPLC-ESI-MS/MS) as described in the bioanalysis procedure below.
Brain Samples: Prior to extraction, pre-weighed whole brains were homogenized in 1:1 acetonitrile:water (v:v) (2 mL per mouse brain) using an IKA T18 Ultra-Turrax Homogenizer at the setting of 4 for approximately 1 minute. The homogenate was centrifuged at 13,000 rpm for 20 minutes and 50 μL of the supernatant were treated exactly as described in above for plasma samples.
Bioanalysis Procedures: All samples, including plasma and brain homogenate extracts (including calibration standards and quality control (QC) samples prepared in K2EDTA mouse plasma), were extracted by protein precipitation. To each 50 μL aliquot of sample, 50 μL of IS solution (2500 ng/mL of Lacosamide in water:acetonitrile (1:1)) and 50 μL of 6% (v:v) phosphoric acid in water were added, then 200 μL acetonitrile was added. The samples in 1.7 mL tubes were vortex-mixed then centrifuged for 20 minutes at 13,000 rpm. Fifty microliters of the supernatant was mixed with 150 μL of water:acetonitrile (1:1) in a 96 well plate, which was centrifuged post-mixing for 20 minutes at 4000 rpm. The samples were then ready for UHPLC-MS/MS analysis.
Samples were analyzed for Compound A by a research-grade UHPLC-MS/MS method using the conditions listed below.
Samples were analyzed for Lacosamide by a research-grade UHPLC-MS/MS method using the conditions listed below.
At least three QC samples, one at each concentration, had to show back-calculated values within ±20% of their nominal concentrations for the whole sample batch to be valid.
The Blinding and Randomization, Clinical Observations, AC-MES Assay, Sample Collection and Preparation, Plasma and Brain Samples Analysis, and Bioanalysis Procedures in Example 4 were identical to those used in Example 2.
Sample concentration determination and Data Processing and Analysis in Example 4 was identical to Example 2.

[1] = Study 2C, analyte Compound A, 3 mg/kg PO 0.5 h + Lacosamide 10 mg/kg PO 2 h
[2] = Study 4F, Compound A 2 mg/kg PO (0.5 h) in combination with Cenobamate 5 mg/kg PO (2 h)
[3] = Study 4G, Compound A 0.5 mg/kg PO (0.5 h) in combination with Cenobamate 5 mg/kg PO (2 h)
[4] = Study 4G, Compound A 1 mg/kg PO (0.5 h) in combination with Cenobamate 5 mg/kg PO (2 h)

Structure (SMILES): Cc1cc(N2CCc3cc(F)ccc3C2)cc(C)c1NC(=O)CC(C)(C)C [Compound A, N-[4-(6-fluoro-3,4-dihydro-1H-isoquinolin-2-yl)-2,6-dimethylphenyl]-3,3-dimethylbutanamide]
- concentration at 0.5 h (2 mg/kg, Study 4F, Compound A 2 mg/kg PO alone, 0.5 h pre-treatment, CF-1 mice, read-out: Mean Brain): 250 nM
- concentration at 0.5 h (2 mg/kg, Study 4F, Compound A 2 mg/kg PO alone, 0.5 h pre-treatment, CF-1 mice, read-out: Mean Plasma): 110 nM
- concentration at 0.5 h (Study 2C, analyte Compound A, 3 mg/kg PO 0.5 h + Lacosamide 10 mg/kg PO 2 h, read-out: Mean Plasma): 279 nM
- concentration at 0.5 h (Study 4F, analyte Compound A, 2 mg/kg in combination with Cenobamate 5 mg/kg, read-out: mean plasma concentration): 290 nM
- concentration at 0.5 h (Study 4G, analyte Compound A, 0.5 mg/kg in combination with Cenobamate 5 mg/kg, read-out: mean total plasma concentration): 30 nM
- concentration at 0.5 h (Study 4G, analyte Compound A, 1 mg/kg in combination with Cenobamate 5 mg/kg, read-out: mean total plasma concentration): 110 nM
- concentration at 0.5 h (po, 2 mg/kg, Study 4F, Compound A 2 mg/kg PO, 0.5 h, alone, read-out: mean plasma concentration): 110 nM
- Kp at 0.5 h (po, 2 mg/kg, Study 4F, Compound A 2 mg/kg PO alone, read-out: B/P Ratio (brain to plasma ratio)): 2.32
- concentration at 2 h (Study 2A, Compound A 1 mg/kg PO, 0.5 h, 1 mg/kg, read-out: Mean Plasma): 80 nM
- concentration at 2 h (Study 2A, Compound A 5 mg/kg PO, 0.5 h, 5 mg/kg, read-out: Mean Plasma): 280 nM
- concentration at 2 h (Study 2A, Compound A 10 mg/kg PO, 0.5 h, 10 mg/kg, read-out: Mean Plasma): 370 nM
- concentration at 2 h (Study 2B, Compound A 10 mg/kg PO, 0.5 h, 10 mg/kg, read-out: Mean Plasma): 550 nM
- concentration at 2 h (Study 2C, Compound A 3 mg/kg PO, 0.5 h, alone, 3 mg/kg, read-out: Mean Plasma): 280 nM and 283 nM
- B/P Ratio [1]: 1.95 +
- Mean Brain [1]: 0.54 + μM
- Mean Plasma [1]: 0.28 + μM
- concentration at 2 h (Study 4B, Compound A 5 mg/kg PO, 0.5 h, 5 mg/kg, read-out: mean plasma concentration): 470 nM
- Mean Brain, Compound A [2]: 0.67 µM
- Mean Plasma, Compound A [2]: 0.29 µM
- B/P Ratio, Compound A (Study 4F, Compound A 2 mg/kg PO in combination with Cenobamate 5 mg/kg PO): 2.34
- Mean Brain, Compound A [3]: 0.09 µM
- Mean Plasma, Compound A [3]: 0.03 µM
- B/P Ratio, Compound A (Study 4G, Compound A 0.5 mg/kg PO in combination with Cenobamate 5 mg/kg PO): 3.22
- Mean Brain, Compound A [4]: 0.30 µM
- Mean Plasma, Compound A [4]: 0.11 µM
- B/P Ratio, Compound A (Study 4G, Compound A 1 mg/kg PO in combination with Cenobamate 5 mg/kg PO): 2.76
- concentration at 30 min (male, 1 mg/kg, Study 4A, Compound A 1 mg/kg single oral dose, 30 min pre-treatment, CF-1 mice, read-out: Brain): 150 nM
- concentration at 30 min (male, 1 mg/kg, Study 4A, Compound A 1 mg/kg single oral dose, 30 min pre-treatment, CF-1 mice, read-out: Plasma): 80 nM
- concentration at 30 min (male, 5 mg/kg, Study 4A, Compound A 5 mg/kg single oral dose, 30 min pre-treatment, CF-1 mice, read-out: Brain): 400 nM
- concentration at 30 min (male, 5 mg/kg, Study 4A, Compound A 5 mg/kg single oral dose, 30 min pre-treatment, CF-1 mice, read-out: Plasma): 280 nM
- concentration at 30 min (male, 10 mg/kg, Study 4A, Compound A 10 mg/kg single oral dose, 30 min pre-treatment, CF-1 mice, read-out: Brain): 500 nM
- concentration at 30 min (male, 10 mg/kg, Study 4A, Compound A 10 mg/kg single oral dose, 30 min pre-treatment, CF-1 mice, read-out: Plasma): 370 nM
- Kp at 0.5 h (male, po, 1 mg/kg, Study 2A, Compound A 1 mg/kg PO, 0.5 h, read-out: B/P Ratio): 1.85
- concentration at 0.5 h (male, po, 1 mg/kg, Study 2A, Compound A 1 mg/kg PO, 0.5 h, read-out: Mean Brain): 150 nM
- concentration at 0.5 h (male, po, 1 mg/kg, Study 2A, Compound A 1 mg/kg PO, 0.5 h, read-out: Mean Plasma): 81.5 nM
- concentration at 0.5 h (male, po, 1 mg/kg, Study 4A, Compound A 1 mg/kg PO, 0.5 h, read-out: mean plasma concentration): 80 nM
- Kp at 30 min (male, po, 1 mg/kg, Study 4A, Compound A 1 mg/kg single oral dose, read-out: B/P Ratio (brain to plasma ratio)): 1.85
- Kp at 0.5 h (male, po, 3 mg/kg, Study 2C, Compound A 3 mg/kg PO, 0.5 h, alone, read-out: B/P Ratio): 1.79
- concentration at 0.5 h (male, po, 3 mg/kg, Study 2C, Compound A 3 mg/kg PO, 0.5 h, alone, read-out: Mean Brain): 510 nM
- concentration at 0.5 h (male, po, 3 mg/kg, Study 2C, Compound A 3 mg/kg PO, 0.5 h, alone, read-out: Mean Plasma): 284 nM
- concentration at 0.5 h (male, po, 3 mg/kg, Study 4C, Compound A 3 mg/kg PO, 0.5 h, read-out: plasma concentration): 280 nM
- concentration at 30 min (male, po, 3 mg/kg, Study 4C, Compound A 3 mg/kg single oral dose, CF-1 mice, read-out: Mean Brain): 510 nM
- concentration at 30 min (male, po, 3 mg/kg, Study 4C, Compound A 3 mg/kg single oral dose, CF-1 mice, read-out: Mean Plasma): 280 nM
- Kp at 30 min (male, po, 3 mg/kg, Study 4C, Compound A 3 mg/kg single oral dose, read-out: B/P Ratio (brain to plasma ratio)): 1.79
- Kp at 0.5 h (male, po, 5 mg/kg, Study 2A, Compound A 5 mg/kg PO, 0.5 h, read-out: B/P Ratio): 1.45
- concentration at 0.5 h (male, po, 5 mg/kg, Study 2A, Compound A 5 mg/kg PO, 0.5 h, read-out: Mean Brain): 400 nM
- concentration at 0.5 h (male, po, 5 mg/kg, Study 2A, Compound A 5 mg/kg PO, 0.5 h, read-out: Mean Plasma): 276 nM
- Kp at 0.5 h (male, po, 5 mg/kg, Study 2B, Compound A 5 mg/kg PO, 0.5 h, read-out: B/P Ratio): 1.51
- concentration at 0.5 h (male, po, 5 mg/kg, Study 2B, Compound A 5 mg/kg PO, 0.5 h, read-out: Mean Brain): 710 nM
- concentration at 0.5 h (male, po, 5 mg/kg, Study 4A, Compound A 5 mg/kg PO, 0.5 h, read-out: mean plasma concentration): 280 nM
- Kp at 30 min (male, po, 5 mg/kg, Study 4A, Compound A 5 mg/kg single oral dose, read-out: B/P Ratio (brain to plasma ratio)): 1.45
- concentration at 0.5 h (male, po, 5 mg/kg, Study 4B, Compound A 5 mg/kg PO, 0.5 h, read-out: mean plasma concentration): 470 nM
- concentration at 30 min (male, po, 5 mg/kg, Study 4B, Compound A 5 mg/kg single oral dose, CF-1 mice, read-out: Mean Brain): 710 nM
- concentration at 30 min (male, po, 5 mg/kg, Study 4B, Compound A 5 mg/kg single oral dose, CF-1 mice, read-out: Mean Plasma): 1000 nM
- Kp at 30 min (male, po, 5 mg/kg, Study 4B, Compound A 5 mg/kg single oral dose, read-out: B/P Ratio (brain to plasma ratio)): 1.51
- Kp at 0.5 h (male, po, 7.5 mg/kg, Study 2B, Compound A 7.5 mg/kg PO, 0.5 h, read-out: B/P Ratio): 1.64
- concentration at 0.5 h (male, po, 7.5 mg/kg, Study 2B, Compound A 7.5 mg/kg PO, 0.5 h, read-out: Mean Brain): 870 nM
- concentration at 0.5 h (male, po, 7.5 mg/kg, Study 2B, Compound A 7.5 mg/kg PO, 0.5 h, read-out: Mean Plasma): 530 nM
- concentration at 30 min (male, po, 7.5 mg/kg, Study 4B, Compound A 7.5 mg/kg single oral dose, CF-1 mice, read-out: Mean Brain): 870 nM
- concentration at 30 min (male, po, 7.5 mg/kg, Study 4B, Compound A 7.5 mg/kg single oral dose, CF-1 mice, read-out: Mean Plasma): 530 nM
- Kp at 30 min (male, po, 7.5 mg/kg, Study 4B, Compound A 7.5 mg/kg single oral dose, read-out: B/P Ratio (brain to plasma ratio)): 1.64
- Kp at 0.5 h (male, po, 10 mg/kg, Study 2A, Compound A 10 mg/kg PO, 0.5 h, read-out: B/P Ratio): 1.36
- concentration at 0.5 h (male, po, 10 mg/kg, Study 2A, Compound A 10 mg/kg PO, 0.5 h, read-out: Mean Brain): 500 nM
- concentration at 0.5 h (male, po, 10 mg/kg, Study 2A, Compound A 10 mg/kg PO, 0.5 h, read-out: Mean Plasma): 366 nM
- Kp at 0.5 h (male, po, 10 mg/kg, Study 2B, Compound A 10 mg/kg PO, 0.5 h, read-out: B/P Ratio): 1.64
- concentration at 0.5 h (male, po, 10 mg/kg, Study 2B, Compound A 10 mg/kg PO, 0.5 h, read-out: Mean Brain): 910 nM
- concentration at 0.5 h (male, po, 10 mg/kg, Study 2B, Compound A 10 mg/kg PO, 0.5 h, read-out: Mean Plasma): 553 nM
- concentration at 0.5 h (male, po, 10 mg/kg, Study 4A, Compound A 10 mg/kg PO, 0.5 h, read-out: mean plasma concentration): 370 nM
- Kp at 30 min (male, po, 10 mg/kg, Study 4A, Compound A 10 mg/kg single oral dose, read-out: B/P Ratio (brain to plasma ratio)): 1.36
- concentration at 0.5 h (male, po, 10 mg/kg, Study 4B, Compound A 10 mg/kg PO, 0.5 h, read-out: mean plasma concentration): 550 nM
- concentration at 30 min (male, po, 10 mg/kg, Study 4B, Compound A 10 mg/kg single oral dose, CF-1 mice, read-out: Mean Brain): 910 nM
- concentration at 30 min (male, po, 10 mg/kg, Study 4B, Compound A 10 mg/kg single oral dose, CF-1 mice, read-out: Mean Plasma): 550 nM
- Kp at 30 min (male, po, 10 mg/kg, Study 4B, Compound A 10 mg/kg single oral dose, read-out: B/P Ratio (brain to plasma ratio)): 1.64

From patent US20220288057A1, “CONJOINT THERAPY FOR TREATING SEIZURE DISORDERS” (XENON PHARMACEUTICALS INC., priority 2021, published 2022)
